Measurements taken from patent US10988433B2, “Cyclohexyl GPR40 agonists for the treatment of type II diabetes” (Janssen Pharmaceutica NV, priority 2016, dated 2021).

Columns and labels:
[1] = molecular target: T1, human GPR40 (Homo sapiens, UniProt O14842); assay: GPR40 calcium flux assay, HEK293 cells stably expressing human GPR40; assay type: cell-based; conditions: transfected HEK293 cells stably expressing human GPR40, Fluo 8 dye, read-out: hGPR40 Ca2+ Assay EC50
T1 construct: expressed in transfected cells
Procedure: (§1) Compounds were tested in a calcium flux assay using transfected HEK293 cells stably expressing either human GPR40 or rat GPR40. Human GPR40 expressing cells were cultured in DMEM-High Glucose media supplemented with 10% fetal bovine serum, 1×L-Glutamine, 1×Penicillin/Streptomycin and 500 μg/mL G418. Rat GPR40 expressing cells were cultured in DMEM-High Glucose media supplemented with 10% fetal bovine serum and 1 μg/mL puromycin. Cells were plated into poly-D-lysine coated 384-well plates and cultured overnight in a 37° C. humidified tissue culture incubator under 5% CO2/[…] atmosphere. On the day of the experiment, the culture media was replaced with assay buffer (HBSS, 20 mM HEPES, 0.1% BSA) and the cells incubated at 37° C. for 1 h. Calcium-sensitive fluorescent dye (Fluo 8 No-Wash Calcium Dye, ABD Bioquest) was then added and the cells incubated for another 30 min at 37° C. followed by 15 min at room temperature while protected from the light. The cell plate and a plate of diluted compounds of Formula (I) were loaded into a fluorescent plate reader that added compounds onto the cells while measuring the fluorescence intensity of each well. The plate reader recorded fluorescence intensity at 1 second intervals for 8 min and provided the data for analysis in an Excel format. EC50 values were calculated using Prism (GraphPad) software.

[2] = molecular target: T2, rat GPR40 (Rattus norvegicus, UniProt Q8K3T4); assay: GPR40 calcium flux assay, HEK293 cells stably expressing rat GPR40; assay type: cell-based; conditions: transfected HEK293 cells stably expressing rat GPR40, Fluo 8 dye, read-out: rGPR40 Ca2+ Assay EC50
T2 construct: expressed in transfected cells
Procedure: as §1

T1 sequence (O14842 whole entry): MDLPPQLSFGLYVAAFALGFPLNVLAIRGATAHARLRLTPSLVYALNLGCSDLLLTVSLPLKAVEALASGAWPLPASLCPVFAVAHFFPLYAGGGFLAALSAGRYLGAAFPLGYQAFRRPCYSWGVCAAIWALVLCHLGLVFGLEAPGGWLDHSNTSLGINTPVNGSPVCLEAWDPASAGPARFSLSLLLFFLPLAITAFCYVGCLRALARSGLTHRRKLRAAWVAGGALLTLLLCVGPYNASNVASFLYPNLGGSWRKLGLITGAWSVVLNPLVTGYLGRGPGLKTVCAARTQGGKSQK
T2 sequence (Q8K3T4 whole entry): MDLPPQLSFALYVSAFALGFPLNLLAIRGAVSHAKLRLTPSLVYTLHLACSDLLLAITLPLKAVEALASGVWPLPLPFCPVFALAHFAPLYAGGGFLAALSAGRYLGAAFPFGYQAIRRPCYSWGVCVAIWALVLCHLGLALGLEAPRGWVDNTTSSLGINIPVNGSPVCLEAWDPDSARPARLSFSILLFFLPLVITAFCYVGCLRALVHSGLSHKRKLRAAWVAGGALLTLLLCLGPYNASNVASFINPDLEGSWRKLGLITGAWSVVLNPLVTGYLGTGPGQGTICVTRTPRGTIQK

SMILES	EC50 [1] [nM]	EC50 [2] [nM]
COc1cc(C2CCC(COc3cccc([C@@H](CC(=O)O)C4CC4)c3)C(CC(C)C)C2)c(F)cn1 (stereo partly drawn) [Cpd 30, (3S)-3-Cyclopropyl-3-(3-((4-(5-fluoro-2-methoxypyridin-4-yl)-2-isobutylcyclohexyl)methoxy)phenyl)propanoic acid]	2.1	29.4
COc1cc([C@H]2CC[C@H](COc3ccnc(C(CC(=O)O)C4CC4)c3)CC2)c(F)cn1 (some centres unmarked) [Cpd 31, 3-Cyclopropyl-3-(4-(((1r,4r)-4-(5-fluoro-2-methoxypyridin-4-yl)cyclohexyl)methoxy)pyridin-2-yl)propanoic acid]	26.1	54.2
COc1cc([C@H]2CC[C@@H](COc3ccnc(C(CC(=O)O)C4CC4)c3)CC2)c(F)cn1 (some centres unmarked) [Cpd 32, 3-Cyclopropyl-3-(4-(((1s,4s)-4-(5-fluoro-2-methoxypyridin-4-yl)cyclohexyl)methoxy)pyridine-2-yl)propanoic acid]	59	256
COc1cc(C2CCC(COc3cccc([C@@H](CC(=O)O)C4CC4)c3)C(C)C2)c(F)cn1 (stereo partly drawn) [Cpd 33, (3S)-3-Cyclopropyl-3-(3-((4-(5-fluoro-2-methoxypyridin-4-yl)-2-methylcyclohexyl)methoxy)phenyl)propanoic acid]	3.7	17.3
COc1ccc(F)c([C@H]2CC[C@H](COc3ccnc(C(CC(=O)O)C4CC4)c3)CC2)c1 (some centres unmarked) [Cpd 34, 3-Cyclopropyl-3-(4-(((1r,4r)-4-(2-fluoro-5-methoxyphenyl)cyclohexyl)methoxy)pyridin-2-yl)propanoic acid]	62.4	282
COc1ccc(F)c([C@H]2CC[C@@H](COc3ccnc(C(CC(=O)O)C4CC4)c3)CC2)c1 (some centres unmarked) [Cpd 35, 3-Cyclopropyl-3-(4-(((1s,4s)-4-(2-fluoro-5-methoxyphenyl)cyclohexyl)methoxy)pyridin-2-yl)propanoic acid]	1840	5320
COc1ccc(F)c([C@H]2CC[C@H](CCc3cccc([C@@H](CC(=O)O)C4CC4)c3)CC2)c1 [Cpd 36, (S)-3-Cyclopropyl-3-(3-(2-((1r,4R)-4-(2-fluoro-5-methoxyphenyl)cyclohexyl)ethyl)phenyl) propanoic acid]	1.7	9.2
COc1ccc(F)c([C@H]2CC[C@@H](COc3cccc([C@H](CC(=O)O)C4CC4)c3)CC2)c1 [Cpd 37, (R)-3-Cyclopropyl-3-(3-(((1s,4S)-4-(2-fluoro-5-methoxyphenyl)cyclohexyl)methoxy)phenyl)propanoic acid]	687	1320
COc1ccc(F)c([C@H]2CC[C@H](COc3cccc([C@H](CC(=O)O)C4CC4)c3)CC2)c1 [Cpd 38, (R)-3-cyclopropyl-3-(3-(((1r,4R)-4-(2-fluoro-5-methoxyphenyl)cyclohexyl)methoxy)phenyl)propanoic acid]	6.2	15.6
COc1ccc(F)c([C@H]2CC[C@@H](COc3cccc([C@@H](Cc4nnn[nH]4)C4CC4)c3)CC2)c1 [Cpd 39, 5-((S)-2-Cyclopropyl-2-(3-(((1s,4R)-4-(2-fluoro-5-methoxyphenyl)cyclohexyl)methoxy)phenyl)ethyl)-1H-tetrazole]	600	3150
COc1ccc(F)c([C@H]2CC[C@H](CNc3cccc([C@@H](CC(=O)O)C4CC4)c3)CC2)c1 [Cpd 40, (S)-3-Cyclopropyl-3-(3-((((1r,4 S)-4-(2-fluoro-5-methoxyphenyl)cyclohexyl)methyl)amino)phenyl)propanoic acid]	22	21
COc1ccc(F)c([C@H]2CC[C@@H](COc3cc([C@H](CC(=O)O)C4CC4)ccn3)CC2)c1 [Cpd 41, (R)-3-Cyclopropyl-3-(2-(((1s,4S)-4-(2-fluoro-5-methoxyphenyl)cyclohexyl)methoxy)pyridin-4-yl)propanoic acid]	18	43
CC#CC(CC(=O)O)c1cccc(OC[C@H]2CC[C@@H](c3cc(OC)ccc3F)CC2)c1 (some centres unmarked) [Cpd 42, 3-(3-(((1 s,4s)-4-(2-Fluoro-5-methoxyphenyl)cyclohexyl)methoxy)phenyl)hex-4-ynoic acid]	3100	401
COc1cc([C@H]2CC[C@H](COc3cc([C@@H](Cc4nnn[nH]4)C4CC4)ccn3)CC2)c(F)cn1 [Cpd 43, 4-((1S,4r)-4-(((4-((S)-1-Cyclopropyl-2-(1H-tetrazol-5-yl)ethyl)pyridin-2-yl)oxy)methyl)cyclohexyl)-5-fluoro-2-methoxypyridine]	281	464
COc1cc([C@]2(OC)CC[C@@H](COc3cc([C@@H](CC(=O)O)C4CC4)ccn3)CC2)c(F)cn1 [Cpd 44, (S)-3-cyclopropyl-3-(2-(((1s,4R)-4-(5-fluoro-2-methoxypyridin-4-yl)-4-methoxycyclohexyl)methoxy)pyridin-4-yl) propanoic acid]	9.9	29
COc1cc([C@]2(OC)CC[C@H](COc3cc([C@@H](CC(=O)O)C4CC4)ccn3)CC2)c(F)cn1 [Cpd 45, (S)-3-Cyclopropyl-3-(2-(((1r,4S)-4-(5-fluoro-2-methoxypyridin-4-yl)-4-methoxycyclohexyl)methoxy)pyridin-4-yl)propanoic acid]	258	855
COc1cncc(C2CCC(COc3cc([C@@H](CC(=O)O)C4CC4)ccn3)CC2)n1 (stereo partly drawn) [Cpd 46, (S)-3-Cyclopropyl-3-(2-((4-(6-methoxypyrazin-2-yl)cyclohexyl)methoxy)pyridin-4-yl)propanoic acid]	5800	> 10000
COc1ccc(F)c([C@H]2CC[C@@H](CNc3cccc([C@@H](CC(=O)O)C4CC4)c3)CC2)c1 [Cpd 47, (S)-3-cyclopropyl-3-(3-((((1s,4R)-4-(2-fluoro-5-methoxyphenyl)cyclohexyl)methyl)amino)phenyl)propanoic acid]	71.5	147
CCOc1cc([C@H]2CC[C@@H](COc3cc([C@@H](CC(=O)O)C4CC4)ccn3)CC2)c(F)cn1 [Cpd 48, (S)-3-cyclopropyl-3-(2-(((1s,4R)-4-(2-ethoxy-5-fluoropyridin-4-yl)cyclohexyl)methoxy)pyridin-4-yl)propanoic acid]	212	676
COc1ccnc(C2CCC(COc3cc([C@@H](CC(=O)O)C4CC4)ccn3)CC2)n1 (stereo partly drawn) [Cpd 49, (S)-3-Cyclopropyl-3-(2-((4-(4-methoxypyrimidin-2-yl)cyclohexyl)methoxy)pyridin-4-yl)propanoic acid]	244	1110
CCOC(CC(=O)O)c1cccc(OC[C@H]2CC[C@@H](c3cc(OC)ccc3F)CC2)c1 (some centres unmarked) [Cpd 50, 3-Ethoxy-3-(3-(((1s,4s)-4-(2-fluoro-5-methoxyphenyl)cyclohexyl)methoxy)phenyl) propanoic acid]	500	656
COc1ccc(F)c([C@H]2CC[C@H](COc3cccc([C@H](C4CC4)[C@H](C)C(=O)O)c3)CC2)c1 [Cpd 52, (2S,3R)-3-cyclopropyl-3-(3-(((1r,4R)-4-(2-fluoro-5-methoxyphenyl)cyclohexyl)methoxy)phenyl)-2-methylpropanoic acid]	0.2	0.4
COc1ccc(F)c([C@H]2CC[C@@H](COc3cccc([C@H](C4CC4)[C@H](C)C(=O)O)c3)CC2)c1 [Cpd 53, (2S,3R)-3-cyclopropyl-3-(3-(((1s,4S)-4-(2-fluoro-5-methoxyphenyl)cyclohexyl)methoxy)phenyl)-2-methylpropanoic acid]	2	7.7
COc1ccc(F)c(C2CCC(COc3cccc([C@H](C4CC4)C(F)C(=O)O)c3)CC2)c1 (stereo partly drawn) [Cpd 54, (3S)-3-Cyclopropyl-2-fluoro-3-(3-(((1r,4S)-4-(2-fluoro-5-methoxyphenyl)cyclohexyl)methoxy)phenyl)propanoic acid]	0.5	1.4
COc1ccc(F)c(C2CCC(COc3cccc(C(CC(=O)O)C4CC4)c3)CC2)c1 (centres unmarked) [Cpd 55, 3-Cyclopropyl-3-(3-(((1 s,4 s)-4-(2-fluoro-5-methoxyphenyl)cyclohexyl)methoxy)phenyl)propanoic acid]	133	346
CCc1ccc(F)c([C@H]2CC[C@H](COc3cccc([C@H](C4CC4)[C@H](C)C(=O)O)c3)CC2)c1 [Cpd 57, (2S,3R)-3-cyclopropyl-3-(3-(((1r,4R)-4-(5-ethyl-2-fluorophenyl)cyclohexyl)methoxy)phenyl)-2-methylpropanoic acid]	0.5	1.2
COc1ccc(F)c([C@H]2CC[C@H](COc3cccc([C@H](C4CC4)C(C)(F)C(=O)O)c3)CC2)c1 (stereo partly drawn) [Cpd 58, (3S)-3-Cyclopropyl-2-fluoro-3-(3-(((1r,4S)-4-(2-fluoro-5-methoxyphenyl)cyclohexyl)methoxy)phenyl)-2-methylpropanoic acid]	0.3	0.23
COc1ccc(F)c([C@H]2CC[C@H](COc3cccc([C@H](C4CC4)[C@](C)(F)C(=O)O)c3)CC2)c1 [Cpd 60, (2S,3S)-3-Cyclopropyl-2-fluoro-3-(3-(((1r,4S)-4-(2-fluoro-5-methoxyphenyl)cyclohexyl)methoxy)phenyl)-2-methylpropanoic acid]	6.05	6.88
